Results as given in patent US5767237A, “Peptide derivatives” (Teikoku Hormone Mfg. Co., Ltd., priority 1993, dated 1998).

Test system: mouse leukemia P388 cells
Experiment: Assay of antitumor activity: increase in life span of mice implanted with P388 leukemia
Type: in vivo
Details: CDF1 mice, P388 cells 10^6 cells/mouse i.p.; compound i.p. on first and fifth day after implantation; observed for 60 days; ILS from median survival days
Method: (1) Assay of antitumor activity
0.1 ml (10^6 cells/mouse) portions of mouse leukemia P388 cells were implanted intraperitoneally into 7-week-old CDF1 mice. […] From the results were calculated increases in life span (ILS, %) according to the following equation. In the following equation, T means median survival days of the chemical administration group, and C means median survival days of the control group. [formula]
Antitumor activity is shown as the relative ratio in the case where the ILS of dolastatin 10 is supposed to be 100.

Substance: dolastatin 10
- Antitumor activity (relative ratio of ILS, ILS of dolastatin 10 supposed to be 100): 100
